The target of the assay is [35S]-TBPS binding, rat brain cortical membranes (GABAA receptor). The assay can be described thus: Steroid inhibition of [35S]-TBPS binding. The conditions noted are these: 3 nM [35S]-TBPS, in the presence of 5 mM GABA, 90 min at room temp. How it is done:
Steroid Inhibition of TBPS Binding
[^35S]-t-Butylbicyclophosphorothionate (TBPS) binding assays using rat brain cortical membranes in the presence of 5 mM GABA has been described (Gee et al, J. Pharmacol. Exp. Ther. 1987, 241, 346-353; Hawkinson et al, Mol. Pharmacol. 1994, 46, 977-985; Lewin, A. H et al., Mol. Pharmacol. 1989, 35, 189-194).
Briefly, cortices are rapidly removed following decapitation of carbon dioxide-anesthetized Sprague-Dawley rats (200-250 g). The cortices are homogenized in 10 volumes of ice-cold 0.32 M sucrose using a glass/teflon homogenizer and centrifuged at 1500×g for 10 min at 4° C. The resultant supernatants are centrifuged at 10,000×g for 20 min at 4° C. to obtain the P2 pellets. The P2 pellets are resuspended in 200 mM NaCl/50 mM Na—K phosphate pH 7.4 buffer and centrifuged at 10,000×g for 10 min at 4° C. This washing procedure is repeated twice and the pellets are resuspended in 10 volumes of buffer. Aliquots ([…]) of the membrane suspensions are incubated with 3 nM [^35S]-TBPS and […] aliquots of test drug dissolved in dimethyl sulfoxide (DMSO) (final 0.5%) in the presence of 5 mM GABA. The incubation is brought to a final volume of 1.0 mL with buffer. Nonspecific binding is determined in the presence of […] and ranged from 15 to 25%. Following a 90 min incubation at room temp, the assays are terminated by filtration through glass fiber filters (Schleicher and Schuell No. 32) using a cell harvester (Brandel) and rinsed three times with ice-cold buffer. Filter bound radioactivity is measured by liquid scintillation spectrometry. Non-linear curve fitting of the overall data for each drug averaged for each concentration is done using Prism (GraphPad). […] The concentration of test compound producing 50% inhibition (IC50) of specific binding and the maximal extent of inhibition (Imax) are determined for the individual experiments with the same model used for the overall data and then the means±SEM.s of the individual experiments are calculated.
Various compounds are or can be screened to determine their potential as modulators of [^35S]-TBPS binding in vitro. These assays are or can be performed in accordance with the above

The IC50 is the point on the concentration scale where inhibition reaches its midpoint.

Regarding `COC[C@@]1(O)CC[C@H]2[C@H](CC[C@@H]3[C@@H]2CC[C@]2(C)[C@@H](C(=O)Nc4cnc(C#N)nc4)CC[C@@H]32)C1` [Compound 89, (3R,5R,8R,9R,10S,13S,14S,17S)—N-(2-cyanopyrimidin-5-yl)-3-hydroxy-3-(methoxymethyl)-13-methylhexadecahydro-1H-cyclopenta[a]phenanthrene-17-carboxamide], the IC50 is below 100 nM.
As for `CCC[C@@]1(O)CC[C@H]2[C@H](CC[C@@H]3[C@@H]2CC[C@]2(C)[C@@H](C(=O)Nc4ncc(C#N)cn4)CC[C@@H]32)C1` [Compound 90, (3R,5R,8R,9R,10S,13S,14S,17S)—N-(5-cyanopyrimidin-2-yl)-3-hydroxy-13-methyl-3-propylhexadecahydro-1H-cyclopenta[a]phenanthrene-17-carboxamide], the figure is below 100 nM.
As for `COC[C@@]1(O)CC[C@H]2[C@H](CC[C@@H]3[C@@H]2CC[C@]2(C)[C@@H](C(=O)Nc4ccnc(C#N)n4)CC[C@@H]32)C1` [Compound 91, (3R,5R,8R,9R,10S,13S,14S,17S)—N-(2-cyanopyrimidin-4-yl)-3-hydroxy-3-(methoxymethyl)-13-methylhexadecahydro-1H-cyclopenta[a]phenanthrene-17-carboxamide], the figure is below 100 nM; as for `COC[C@@]1(O)CC[C@H]2[C@H](CC[C@@H]3[C@@H]2CC[C@]2(C)[C@@H](C(=O)Nc4nccc(C#N)n4)CC[C@@H]32)C1` [Compound 92, (3R,5R,8R,9R,10S,13S,14S,17S)—N-(4-cyanopyrimidin-2-yl)-3-hydroxy-3-(methoxymethyl)-13-methylhexadecahydro-1H-cyclopenta[a]phenanthrene-17-carboxamide], 100 to 1000 nM.
As for `CCC[C@@]1(O)CC[C@H]2[C@H](CC[C@@H]3[C@@H]2CC[C@]2(C)[C@@H](C(=O)Nc4nccc(C#N)n4)CC[C@@H]32)C1` [Compound 93, (3R,5R,8R,9R,10S,13S,14S,17S)—N-(4-cyanopyrimidin-2-yl)-3-hydroxy-13-methyl-3-propylhexadecahydro-1H-cyclopenta[a]phenanthrene-17-carboxamide], the figure is below 100 nM; as for `COC[C@@]1(O)CC[C@H]2[C@H](CC[C@@H]3[C@@H]2CC[C@]2(C)[C@@H](C(=O)Nc4cc(C#N)ncn4)CC[C@@H]32)C1` [Compound 94, (3R,5R,8R,9R,10S,13S,14S,17S)—N-(6-cyanopyrimidin-4-yl)-3-hydroxy-3-(methoxymethyl)-13-methylhexadecahydro-1H-cyclopenta[a]phenanthrene-17-carboxamide], below 100 nM; as for `COC[C@@]1(O)CC[C@H]2[C@H](CC[C@@H]3[C@@H]2CC[C@]2(C)[C@@H](C(=O)Nc4cncc(C#N)n4)CC[C@@H]32)C1` [Compound 95, (3R,5R,8R,9R,10S,13S,14S,17S)—N-(6-cyanopyrazin-2-yl)-3-hydroxy-3-(methoxymethyl)-13-methylhexadecahydro-1H-cyclopenta[a]phenanthrene-17-carboxamide], below 100 nM.
For `C[C@@]1(O)CC[C@H]2[C@H](CC[C@@H]3[C@@H]2CC[C@]2(C)[C@@H](C(=O)Nc4ccccc4)CCC[C@@H]32)C1` [Compound 98, (1S,4aS,4bR,6aR,8R,10aS,10bR,12aS)-8-hydroxy-8,12a-dimethyl-N-phenyloctadecahydrochrysene-1-carboxamide], the 50% inhibitory concentration (IC50) is below 100 nM.
Consider `CC[C@]12CC[C@@](C)(O)C[C@H]1CC[C@H]1[C@@H]3CCC[C@H](C(=O)Nc4ccccc4)[C@@]3(C)CC[C@@H]12` [Compound 99, (1S,4aS,4bS,6aR,8R,10aS,10bS,12aS)-10a-ethyl-8-hydroxy-8,12a-dimethyl-N-phenyloctadecahydrochrysene-1-carboxamide], for which the IC50 is below 100 nM.
As for `CCOC[C@@]1(O)CC[C@@]2(CC)[C@H](CC[C@H]3[C@@H]4CCC[C@H](C(=O)Nc5cc(C)n(C)n5)[C@@]4(C)CC[C@@H]32)C1` [Compound 100, (4aS,4bS,6aR,8R,10aS,10bS,12aS)—N-(1,5-dimethyl-1H-pyrazol-3-yl)-8-(ethoxymethyl)-0a-ethyl-8-hydroxy-12a-methyloctadecahydrochrysene-1-carboxamide], the figure is below 100 nM; as for `CCOC[C@@]1(O)CC[C@@]2(CC)[C@H](CC[C@H]3[C@@H]4CCC[C@H](C(=O)Nc5cc(C)nn5C)[C@@]4(C)CC[C@@H]32)C1` [Compound 101, (1S,4aS,4bS,6aR,8R,10aS,10bS,12aS)—N-(1,3-dimethyl-1H-pyrazol-5-yl)-8-(ethoxymethyl)-10a-ethyl-8-hydroxy-12a-methyloctadecahydrochrysene-1-carboxamide], below 100 nM.

Source of the values: patent US20230250129A1, “NEUROACTIVE STEROIDS AND COMPOSITIONS THEREOF” (Sage Therapeutics, Inc., priority 2020, published 2023).
